According to patent US20030087237A1, “Low-temperature cycle extension of DNA with high polymerization specificity” (priority 2001, published 2003):
Entries after “also recorded” stand apart in the source; their conditions may differ. Like-named read-outs stand apart in the source and are kept apart here.

B1: Bst-I: wild type, natural form of Bacillus stearothermophilus DNA polymerase (protein, UniProt P52026 1-876, looked up)
DNA polymerase I: MKNKLVLIDGNSVAYRAFFALPLLHNDKGIHTNAVYGFTMMLNKILAEEQPTHILVAFDAGKTTFRHETFQDYKGGRQQTPPELSEQFPLLRELLKAYRIPAYELDHYEADDIIGTMAARAEREGFAVKVISGDRDLTQLASPQVTVEITKKGITDIESYTPETVVEKYGLTPEQIVDLKGLMGDKSDNIPGVPGIGEKTAVKLLKQFGTVENVLASIDEIKGEKLKENLRQYRDLALLSKQLAAICRDAPVELTLDDIVYKGEDREKVVALFQELGFQSFLDKMAVQTDEGEKPLAGMDFAIADSVTDEMLADKAALVVEVVGDNYHHAPIVGIALANERGRFFLRPETALADPKFLAWLGDETKKKTMFDSKRAAVALKWKGIELRGVVFDLLLAAYLLDPAQAAGDVAAVAKMHQYEAVRSDEAVYGKGAKRTVPDEPTLAEHLVRKAAAIWALEEPLMDELRRNEQDRLLTELEQPLAGILANMEFTGVKVDTKRLEQMGAELTEQLQAVERRIYELAGQEFNINSPKQLGTVLFDKLQLPVLKKTKTGYSTSADVLEKLAPHHEIVEHILHYRQLGKLQSTYIEGLLKVVHPVTGKVHTMFNQALTQTGRLSSVEPNLQNIPIRLEEGRKIRQAFVPSEPDWLIFAADYSQIELRVLAHIAEDDNLIEAFRRGLDIHTKTAMDIFHVSEEDVTANMRRQAKAVNFGIVYGISDYGLAQNLNITRKEAAEFIERYFASFPGVKQYMDNIVQEAKQKGYVTTLLHRRRYLPDITSRNFNVRSFAERTAMNTPIQGSAADIIKKAMIDLSVRLREERLQARLLLQVHDELILEAPKEEIERLCRLVPEVMEQAVTLRVPLKVDYHYGPTWYDAK

How the values were obtained:
[1] = target: T1, Bst-II DNA polymerase (Geobacillus stearothermophilus, UniProt P52026, A297E/A304V/A338V/A377V/A406D/A433V/A505S/D300E/D309E/D325E/D402N/D540E/D696E/D751E/E459Q/E464D/E476K/E631P/E632L/E667D/F710Y/G298E/G324E/G362A/G483A/G678D/H329D/H417K/H573N/H596R/H691Q/K356Q/K494N/L346M/L461F/L630T/N487E/P355S/P441Q/P480A/Q479H/Q512R/R341H/R467N/R472Q/R516Q/R676Q/R816K/R819Q/R846E/S306V/S373A/S812A/T369S/T436S/T508A/T536V/V307I/V323M/V391A/V410I/V437L/V514I/V537I/V598D/V619A/V692L/V813A); assay type: biochemical, Bacillus stearothermophilus; conditions: for effect on 5′-3′ polymerization activity of the polymerase: 65° C.
T1 construct: made in house
T1 sequence (P52026 other isoform, or with tags, fused parts or gaps with the stated changes): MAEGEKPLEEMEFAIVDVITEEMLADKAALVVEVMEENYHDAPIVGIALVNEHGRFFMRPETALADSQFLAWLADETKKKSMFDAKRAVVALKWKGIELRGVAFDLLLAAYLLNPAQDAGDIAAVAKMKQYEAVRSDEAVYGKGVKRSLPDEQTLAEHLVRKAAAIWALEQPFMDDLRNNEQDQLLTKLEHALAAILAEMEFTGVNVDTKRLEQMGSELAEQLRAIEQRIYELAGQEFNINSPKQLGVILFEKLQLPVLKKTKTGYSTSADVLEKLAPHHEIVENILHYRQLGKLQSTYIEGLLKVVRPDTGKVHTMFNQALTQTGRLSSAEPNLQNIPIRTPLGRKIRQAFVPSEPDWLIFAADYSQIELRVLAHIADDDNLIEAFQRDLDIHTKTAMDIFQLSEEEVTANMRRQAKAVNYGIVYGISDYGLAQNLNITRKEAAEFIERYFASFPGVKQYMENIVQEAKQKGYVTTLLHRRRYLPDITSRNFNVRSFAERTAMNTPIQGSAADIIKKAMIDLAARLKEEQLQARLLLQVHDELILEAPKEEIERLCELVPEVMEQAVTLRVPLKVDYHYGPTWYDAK
Method: The remaining activity of Bst-II DNA polymerase (produced according to U.S. Pat. No. 6,165,765) in the presence of different concentrations of Glycerol was determined as follows:
(a) In a series of numbered 0.5 ml microcentrifuge tubes were added the following:
The mixtures above were firstly evaporated by Speed-Vacuum, then varying final concentrations of glycerol in each reaction mixture were achieved by adding an appropriate amount of a glycerol stock solution to the above microcentrifuge tubes as indicated below.
(b) All these tubes were incubated at 65° C. for 30 minutes. Then each of the reaction mixtures was pipetted onto a DE-81 filter. After all of the fluid has evaporated, the amount of radioactivity on each filter was measured with scintillation and recorded as X1. Thereafter, the filters were washed three times with 0.3 M Na2HPO4 solution at room temperature, 10 minutes each times, dried at room temperature and then the amount of radioactivity on each filter was measured again and recorded as X2. Incorporation ratio=X2/X1. [formula]

[2] = target: T1, Bst-II DNA polymerase; assay: Low-temperature cycle primer extension with Bst-II at different glycerol concentrations (agarose gel); assay type: biochemical, Bacillus stearothermophilus
Method: Bst-II DNA polymerase was used for the study. […]
(§1) The reaction products were run on a 1% agarose gel for electrophoresis and stained by ethidium bromide.
Four different sets of templates and primers were selected representing varying lengths of the DNA segments to be amplified:
The low temperature cycle extension was carried out as follows:
(a) To a 0.2 ml microcentrifuge tube were added.
(b) The mixture above was firstly evaporated by Speed-Vacuum, then the following were added to each microcentrifuge tube containing the evaporated reagents with different sets of template and primers to achieve a final concentration of 35% glycerol and 15% glycerol in the reaction mixture, respectively.
(c) All the microcentrifuge tubes with the reaction mixture were subjected to low temperature cycling as follows:
The reaction products were run on a 1% agarose gel for electrophoresis and stained by ethidium bromide. The reaction products from the mixture containing 35% glycerol were loaded in lane 1, and the reaction products from the mixture containing 15% glycerol were loaded in lane 2.

[3] = system: rice genome BAC B414f7; assay: Low-temperature cycle extension of 17 mer and 30 mer primers with different DNA polymerases (agarose gel); assay type: biochemical; conditions: Bst system, 15% glycerol, 70° C./37° C./50° C., 35 cycles
Method: The polymerases used were Bst-I (wild type produced according to U.S. Pat. No. 5,834,254), Bst-II, and Bca (TaKaRa Co.). The Klenow fragment (Sigma Chemical Co.) was used as a thermolabile DNA polymerase for comparison (Iakobashvili and Lapidot).
The template used was rice genome BAC B414f7.
The two pairs of primers used were: […]
The following reaction system (referred to hereafter as the Bst system) was used.
(a) In a 0.2 ml microcentrifuge tube were added:
(b) The microcentrifuge tubes were subjected to the following temperature cycling.
as §1
In addition, the method of using a reaction mixture containing 4.5 M proline and 17% glycerol in Tris-HCl buffer as recommended by Iakobashvili and Lapidot was also adopted for the reactions with Klenow fragment as the DNA polymerase (hereafter referred to as the Iakobashvili and Lapidot system). The reaction products were also run parallel to those obtained with the Bst system, and illustrated as follows in FIG. 4.

[4] = higher concentrations (greater than about 35%)
[5] = low concentration, not exceeding / up to about 20% (v/v)

Row | Molecule | effect on 5′-3′ polymerization activity of the polymerase [1, 4] | effect on 5′-3′ polymerization activity of the polymerase [1, 5] | loss of original polymerization activity ([1]; glycerol 40% (v/v)) | amplification products on gel ([2]; 15% glycerol, target products 250 bp to 2 Kb) | amplification products on gel ([2]; 35% glycerol, target product 1 Kb and 2 Kb) | amplification products on gel ([2]; 35% glycerol, target product 250 bp or 400 bp) | amplification products on gel ([2]; 40% glycerol, template pBluescript(+), low or high template concentration, 70° C./45° C., 35 cycles) | amplification product from 17 mer and 30 mer primer extension [3]
1 | OCCO [ethylene glycol] | detrimental inhibitory effect | increase the sequence-specific DNA polymerization activity |  |  |  |  |  | 
2 | OCC(O)CO [glycerol] | detrimental inhibitory effect; also recorded: invariably suppressed this enzymatic activity | increased the enzymatic activity; also recorded: increase the sequence-specific DNA polymerization activity; also recorded: increased the 5′-3′ polymerization activity | ⅔ | specific amplification products | both specific and non-specific amplification products | no amplification products produced at all | non-specific amplification products of varying sizes | 
3 | B1 |  |  |  |  |  |  |  | generated specific amplification products
